Each structure is given as a SMILES string. Active and inactive are the calls of the source. No rule for the calls is given here.

For this data set, the system named is CCRIS mutagenicity, Ames/micronucleus/aberration tests. In words: CCRIS mutagenicity studies.
[1] abbreviates: Test System: AMES SALMONELLA TYPHIMURIUM, Strain/Indicator: TA98, Metabolic Activation: NONE, Method: STANDARD PLATE.
Setting [2] is: Test System: AMES SALMONELLA TYPHIMURIUM, Strain/Indicator: TA100, Metabolic Activation: NONE, Method: STANDARD PLATE.
Setting [3] is: Test System: AMES SALMONELLA TYPHIMURIUM, Strain/Indicator: TA1537, Metabolic Activation: NONE, Method: STANDARD PLATE.
The mark [4] stands for this setting: Test System: AMES SALMONELLA TYPHIMURIUM, Strain/Indicator: TA98, Metabolic Activation: NONE, Method: PREINCUBATION
Setting [5] is: Test System: AMES SALMONELLA TYPHIMURIUM, Strain/Indicator: TA100, Metabolic Activation: NONE, Method: PREINCUBATION

With `C=C(C)C(=O)OC(C)(C)C`, the mutagenic call under setting [1] is “inactive; negative”; the mutagenic call (Test System: AMES SALMONELLA TYPHIMURIUM, Strain/Indicator: TA98, Metabolic Activation: RAT, LIVER, S-9, AROCLOR 1254, Method: STANDARD PLATE) was “inactive; negative”; the mutagenic call (Test System: AMES SALMONELLA TYPHIMURIUM, Strain/Indicator: TA98, Metabolic Activation: RAT, LIVER, S-9, SODIUM PHENOBARBITAL, Method: STANDARD PLATE) is “inactive; negative”; the mutagenic call under setting [2] is “inactive; negative”; the mutagenic call (Test System: AMES SALMONELLA TYPHIMURIUM, Strain/Indicator: TA100, Metabolic Activation: RAT, LIVER, S-9, AROCLOR 1254, Method: STANDARD PLATE) was “inactive; negative”; the mutagenic call (Test System: AMES SALMONELLA TYPHIMURIUM, Strain/Indicator: TA100, Metabolic Activation: RAT, LIVER, S-9, SODIUM PHENOBARBITAL, Method: STANDARD PLATE) was “inactive; negative”. The mutagenic call is “inactive; negative” (Test System: AMES SALMONELLA TYPHIMURIUM, Strain/Indicator: TA1535, Metabolic Activation: NONE, Method: STANDARD PLATE); “inactive; negative” (Test System: AMES SALMONELLA TYPHIMURIUM, Strain/Indicator: TA1535, Metabolic Activation: RAT, LIVER, S-9, AROCLOR 1254, Method: STANDARD PLATE); “inactive; negative” (Test System: AMES SALMONELLA TYPHIMURIUM, Strain/Indicator: TA1535, Metabolic Activation: RAT, LIVER, S-9, SODIUM PHENOBARBITAL, Method: STANDARD PLATE); “inactive; negative” under setting [3]; “inactive; negative” (Test System: AMES SALMONELLA TYPHIMURIUM, Strain/Indicator: TA1537, Metabolic Activation: RAT, LIVER, S-9, AROCLOR 1254, Method: STANDARD PLATE); “inactive; negative” (Test System: AMES SALMONELLA TYPHIMURIUM, Strain/Indicator: TA1537, Metabolic Activation: RAT, LIVER, S-9, SODIUM PHENOBARBITAL, Method: STANDARD PLATE). The mutagenic call is, setting by setting: (Test System: AMES SALMONELLA TYPHIMURIUM, Strain/Indicator: TA1538, Metabolic Activation: NONE, Method: STANDARD PLATE) “inactive; negative”; (Test System: AMES SALMONELLA TYPHIMURIUM, Strain/Indicator: TA1538, Metabolic Activation: RAT, LIVER, S-9, AROCLOR 1254, Method: STANDARD PLATE) “inactive; negative”; (Test System: AMES SALMONELLA TYPHIMURIUM, Strain/Indicator: TA1538, Metabolic Activation: RAT, LIVER, S-9, SODIUM PHENOBARBITAL, Method: STANDARD PLATE) “inactive; negative”.

Consider `c1ccc(-c2nc3ccccc3o2)cc1`, for which the mutagenic call is, setting by setting: under setting [1], “inactive; negative”; (Test System: AMES SALMONELLA TYPHIMURIUM, Strain/Indicator: TA98, Metabolic Activation: S-9, Method: STANDARD PLATE) “inactive; negative”.

Take `c1ccc2cc3c(cc2c1)c1cccc2ccc4cccc3c4c21`: the mutagenic call (Test System: HUMAN H1A1V2 CELLS, Strain/Indicator: TK LOCUS, Metabolic Activation: NONE, Method: SUSPENSION/PLATE) is “active; positive”.

For `CS(=O)(=O)Nc1ccc(Nc2c3ccccc3nc3ccccc23)cc1`, the mutagenic call under setting [3] was “active; positive”.

Turning to `O=CNc1ccc(Oc2ccc(Cl)cc2Cl)cc1`, the mutagenic call under setting [2] is “inactive; negative” and the mutagenic call (Test System: AMES SALMONELLA TYPHIMURIUM, Strain/Indicator: TA100, Metabolic Activation: RAT, LIVER, S-9, KANECLOR 500, Method: STANDARD PLATE) is “active; positive”.

For the molecule `COc1cc(C[C@H]2COC(=O)[C@@H]2Cc2ccc(O)c(OC)c2)ccc1O`, the mutagenic call is “inactive; negative” (Test System: CHINESE HAMSTER V79 CELLS, Strain/Indicator: V79 CELLS (HPRT)/6-THIOGUANINE, Metabolic Activation: NONE, Method: SUSPENSION/PLATE) and “inactive; negative” (Test System: CHINESE HAMSTER V-79, Strain/Indicator: V-79(HPRT)/THIOGUANINE, Metabolic Activation: NONE).

Consider `NNc1ccccc1[N+](=O)[O-]`, for which the mutagenic call is, setting by setting: under setting [4], “active; positive”; (Test System: AMES SALMONELLA TYPHIMURIUM, Strain/Indicator: TA98, Metabolic Activation: RAT, LIVER, S-9, KANECHLOR 500, Method: PREINCUBATION) “active; positive”; under setting [5], “active; positive”.

With `CC(Br)(CO)CBr` (configuration not stated), under setting [2], the mutagenic call is “inactive; negative”.

`CC(O)CBr` (configuration not stated): the mutagenic call runs as follows: (Test System: AMES SALMONELLA TYPHIMURIUM, Strain/Indicator: TA97, Metabolic Activation: HAMSTER, LIVER, S-9, AROCLOR 1254 (10%), Method: PREINCUBATION) “inactive; negative”; (Test System: AMES SALMONELLA TYPHIMURIUM, Strain/Indicator: TA97, Metabolic Activation: NONE, Method: PREINCUBATION) “inactive; negative”; (Test System: AMES SALMONELLA TYPHIMURIUM, Strain/Indicator: TA97, Metabolic Activation: RAT, LIVER, S-9, AROCLOR 1254 (10%), Method: PREINCUBATION) “inactive; negative”; (Test System: AMES SALMONELLA TYPHIMURIUM, Strain/Indicator: TA98, Metabolic Activation: HAMSTER, LIVER, S-9, AROCLOR 1254 (10%), Method: PREINCUBATION) “inactive; negative”; (Test System: AMES SALMONELLA TYPHIMURIUM, Strain/Indicator: TA98, Metabolic Activation: RAT, LIVER, S-9, AROCLOR 1254 (10%), Method: PREINCUBATION) “inactive; negative”; (Test System: AMES SALMONELLA TYPHIMURIUM, Strain/Indicator: TA100, Metabolic Activation: HAMSTER, LIVER, S-9, AROCLOR 1254 (10%), Method: PREINCUBATION) “inactive; negative”. Moreover, the mutagenic call was “active; positive” under setting [5]; “active; positive” (Test System: AMES SALMONELLA TYPHIMURIUM, Strain/Indicator: TA100, Metabolic Activation: RAT, LIVER, S-9, AROCLOR 1254 (10%), Method: PREINCUBATION); “active; positive” (Test System: AMES SALMONELLA TYPHIMURIUM, Strain/Indicator: TA1535, Metabolic Activation: HAMSTER, LIVER, S-9, AROCLOR 1254 (10%), Method: PREINCUBATION); “active; positive” (Test System: AMES SALMONELLA TYPHIMURIUM, Strain/Indicator: TA1535, Metabolic Activation: NONE, Method: PREINCUBATION); “active; positive” (Test System: AMES SALMONELLA TYPHIMURIUM, Strain/Indicator: TA1535, Metabolic Activation: RAT, LIVER, S-9, AROCLOR 1254 (10%), Method: PREINCUBATION).

Regarding `NC1CCCC(N)C1` (configuration not stated), the mutagenic call is, setting by setting: under setting [4], “inactive; negative”; (Test System: AMES SALMONELLA TYPHIMURIUM, Strain/Indicator: TA98, Metabolic Activation: RAT, LIVER, S-9, PCB, Method: PREINCUBATION) “inactive; negative”; under setting [5], “inactive; negative”; (Test System: AMES SALMONELLA TYPHIMURIUM, Strain/Indicator: TA100, Metabolic Activation: RAT, LIVER, S-9, PCB, Method: PREINCUBATION) “inactive; negative”.

The record behind these values is PubChem BioAssay AID1259407 (Chemical Carcinogenesis Research Information System (CCRIS), 2018).
